No end group written: not given here.
Legend:
PAR-2 = target: T1, PAR-2 (Homo sapiens, UniProt P55085); settings: literature statement; cited from earlier work
T1 sequence (P55085 26-397): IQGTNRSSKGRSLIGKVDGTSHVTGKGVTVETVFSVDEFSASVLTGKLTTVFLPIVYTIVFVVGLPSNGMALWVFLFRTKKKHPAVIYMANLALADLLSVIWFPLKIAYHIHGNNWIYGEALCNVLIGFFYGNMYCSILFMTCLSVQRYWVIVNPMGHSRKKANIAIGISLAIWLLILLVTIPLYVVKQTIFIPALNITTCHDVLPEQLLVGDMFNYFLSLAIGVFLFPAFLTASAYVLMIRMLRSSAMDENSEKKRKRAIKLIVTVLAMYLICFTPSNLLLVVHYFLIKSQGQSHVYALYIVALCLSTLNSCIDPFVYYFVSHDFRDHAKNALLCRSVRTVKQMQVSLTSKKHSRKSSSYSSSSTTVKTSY

[1] = system: rat gastric mucosal cells; test: Mucin secretion from rat gastric mucosal cells in vivo (galactose in gastric juice); settings: amastatin 2.5 μmol/kg i.v., FIG. 2
Experimental: The gastric pylorus was ligated by the same procedure as described above. Amastatin (2.5 μmol/kg) was administered intravenously immediately after the ligation, and SLp-NH2, LSp-NH2 or tcLP-NH2 was administered intravenously at 1 minute after administration of amastatin. 30 minutes after ligation, the rats was exsanguinated to kill, the stomach was isolated, and the gastric juice was collected. The collected sample of gastric juice was centrifuged at 10000×g for 30 min, and the supernatant was subjected to ultrafiltration with Millipore MC FREE (MW10000), followed by lyophilization. 2M TFA was added to the lyophilized sample, which was hydrolyzed under the conditions at 100° C. for 4 hours. Centrifugal separation was then performed and the supernatant was evaporated to dryness. 200 μL of 0.1 M Tris-HCl was added to the evaporated and dried sample to dissolve it. After 150 μL of a reaction solution containing galactose oxidase (1U), peroxidase (0.5 mU) and HPPA (0.25 μmol) was added to 50 μL of the sample and the mixture was incubated at 37° C. for 30 minutes, an amount of galactose was measured at an excitation wavelength of 320 nm and an fluorescence wavelength of 405 nm.

[2] = system: gastric acid secretion accelerated by carbachol; test: Carbachol-induced gastric acid secretion in pylorus-ligated rats; format: in vivo, rat; settings: carbachol 60 μg/kg s.c., amastatin 2.5 μmol/kg i.v., FIG. 1
Experimental: In an experiment, male Wistar rats at 5 weeks of age were used. After each animal was pre-bred for one week under the circumstance of a room temperature of 23±2° C., the humidity of 50±5%, and the light-and-darkness cycle (light term: from 07:00 to 19:00) of 12 hours, each animal was subjected to the experiment. Water and solid feed were supplied freely during the pre-breeding period and the experiment period.
Moreover, the number of animals used in the experiment was 4-14 animals in all cases, and the results were shown by Mean±Standard Error. The significant difference test was performed by Tukey's multiple comparison test.
A rat was anesthetized with ether after 18-24 hours of fasting, and an abdomen was incised by about 1 cm below a lower end of xiphoid sternum. Duodenum was pinched out of the opened abdominal hole, a part joining pylorus and duodenum was ligated, and the incised abdomen was sutured. After 30 minutes, the rat was exsanguinated to kill, the stomach was isolated, and gastric juice was collected. After the collected gastric juice was filtered, the acidity in the gastric juice was measured by a titration method. […]

[3] = system: gastric mucosa lesion by ethanol; test: Ethanol-induced gastric mucosa lesion; format: in vivo, rat; settings: 0.25 and 0.5 μmol/kg i.v. 5 min before 75% ethanol p.o.; amastatin 2.5 μmol/kg; FIG. 3
Experimental: (§1) Preparation of ethanol- and hydrochloric acid-ethanol-induced gastric mucosa lesion was performed according to the method of Robert et al. (Robert, A. et al., Gastroenteral, 77, 433-443, 1979). That is, after the rats were fasted for 18 to 24 hours, 1 mL of 75% ethanol or 60% ethanol containing 150 mM hydrochloric acid was administered orally. Rats were exsanguinated to kill after 60 min and their stomaches were isolated. The isolated stomach was incised along with greater curvature, washed and fixed with 10% formaldehyde, and an area of gastric mucosa lesion was measured using Image analyzing software, Mac acpect (Mitani corporation, Chiba prefecture). SLp-NH2 was administered intravenously at 5 minutes before administration of 75% ethanol or 60% ethanol containing 150 mM hydrochloric acid. Amastatin (2.5 μmol/kg) was administered at 1 minute before administration of SLp-NH2.

[4] = system: lesion in gastric mucosa by hydrochloric acid-ethanol; test: Hydrochloric acid-ethanol-induced gastric mucosa lesion; format: in vivo, rat; settings: 0.25 and 0.5 μmol/kg i.v. 5 min before 60% ethanol containing 150 mM hydrochloric acid p.o.; amastatin 2.5 μmol/kg; FIG. 4
Experimental: as §1

human PAR-1 = target: T2, human PAR-1 (Homo sapiens, UniProt P25116); settings: literature statement; cited from earlier work
T2 sequence (P25116 22-425): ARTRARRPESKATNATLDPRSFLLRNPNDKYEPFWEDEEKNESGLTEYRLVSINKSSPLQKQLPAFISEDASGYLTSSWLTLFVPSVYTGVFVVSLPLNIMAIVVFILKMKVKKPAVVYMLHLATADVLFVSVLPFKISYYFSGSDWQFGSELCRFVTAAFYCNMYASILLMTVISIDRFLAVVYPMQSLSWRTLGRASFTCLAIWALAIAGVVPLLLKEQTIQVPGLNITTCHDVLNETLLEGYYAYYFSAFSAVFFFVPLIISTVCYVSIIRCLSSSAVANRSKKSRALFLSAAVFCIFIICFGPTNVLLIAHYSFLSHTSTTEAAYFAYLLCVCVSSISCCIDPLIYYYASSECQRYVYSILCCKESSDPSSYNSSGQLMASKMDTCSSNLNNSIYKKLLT

Leu-Ser-Ile-Gly-Arg-Leu-NH2 (LSIGRL-NH2) [LSp-NH2, control peptide for SLp-NH2]
agonist activity on PAR-2 (PAR-2): inactive substance
effect on mucin secretion from rat gastric mucosal cells ([1]; i.v., dose not given): did not affect mucin secretion
effect on gastric acid secretion accelerated by carbachol (amount of secreted gastric acid) ([2]; 5 μmol/kg i.v.): did not affect

Ser-Leu-Ile-Gly-Arg-Leu-NH2 (SLIGRL-NH2) [SLp-NH2]
effect on gastric mucosa lesion (area) by ethanol [3]: showed the protective effect
effect on mucin secretion from rat gastric mucosal cells ([1]; 0.02 to 5 μmol/kg i.v.): accelerated dose-dependently
effect on gastric mucosa lesion (area) by hydrochloric acid-ethanol [4]: the protective effect was shown
effect on gastric acid secretion accelerated by carbachol (amount of secreted gastric acid) ([2]; 1.25 to 5 μmol/kg i.v.): inhibited dose-dependently

Ser-Phe-Leu-Leu-Arg-NH2 (SFLLR-NH2) [SFp-NH2]
agonist activity on PAR-2 (PAR-2): week agonist activity on PAR-2
agonist activity on human PAR-1 (human PAR-1): agonist activity on human PAR-1

trans-cinnamoyl-Leu-Ile-Gly-Arg-Leu-ornithine-NH2 [tcLp-NH2]
agonist activity on PAR-2 (PAR-2): specifically activate PAR-2
effect on mucin secretion from rat gastric mucosal cells ([1]; i.v., dose not given): also accelerated the mucin secretion
